Series [1] concerns t-PA-induced fibrinolysis in plasma. Briefly: Plasma fibrinolysis assay (turbidometric). The class given is biochemical. The conditions noted are these: human plasma, t-PA 50 U/mL; for IC50: read-out: IC50 on t-PA-induced fibrinolysis in plasma (median [25%; 75% percentile]). As to the method:
Venous blood was withdrawn from the antecubital vein from healthy volunteers after written informed consent in accordance with local and federal guidelines with approval of the local review board (Ethikkommission, Klinikum Charité, Sauerbruchweg 5, 10117 Berlin). The blood was mixed with 0.11 mol/L sodium citrate (1:10). For ROTEM® analysis, whole citrated blood was used within 8 h after collection. Platelet-rich plasma (PRP) was prepared from citrated blood by centrifugation at 330×g for 10 min at room temperature, platelet-poor plasma (PPP) was collected following centrifugation at 1220×g for 12 min. The PRP was then adjusted to 3×10^8 platelets per mL using the autologous PPP. PRP was maintained at room temperature for less than 4 h before analysis. The remaining PPP was subjected to a high-speed centrifugation at 40,000×g for 30 min at 4° C. to remove any particulate material and was then stored at −70° C. until use.
The antifibrinolytic activity of Compound No. 3 in comparison to aprotinin and tranexamic acid was investigated in plasma and whole blood assays. In both assays, tissue factor was added to initiate rapid clot formation via the extrinsic pathway which produces a clot that remains stable for several hours under normal conditions. Supplementation of plasma or whole blood with tissue-type plasminogen activator (t-PA) before stimulation results in activation of endogenous plasminogen and thus fibrinolysis while the initial clot formation is not impaired. […] A final concentration of 50 U/mL and 100 U/mL in plasma and whole blood, respectively, was chosen to achieve complete lysis within about 60 min. In the presence of antifibrinolytics, clot lysis is delayed in a concentration-dependent manner.
Inhibition of fibrinolysis in plasma was examined using a turbidometric method in 96-well flat-bottom plates. The time course of clot formation and lysis, reflected by an initial increase and subsequent decrease in turbidity, was recorded by continuously measuring the optical density (OD) at 405 nm. Similar models have been used widely to study the clot lysis process in human plasma (Kim et al., J. Thromb. Haemost. 5: 1250-6, 2007) as well as its inhibition by antifibrinolytic drugs (Sperzel et al., J. Thromb. Haemost. 5: 2113-8, 2007). Frozen and thawed human plasma (PPP) was pre-incubated with test compound or vehicle (Owren's Veronal buffer) for 5 min at 37° C. […] OD at 405 nm was monitored every 45 s for 180 min at 37° C. with a microplate reader (POLARstar OPTIMA, BMG Labtech, Offenburg, Germany). Fibrinolysis was quantified as the relative decrease in OD at 45 min after the maximum OD was reached. […]

In series [2] the target is T1, Human factor Xa (Homo sapiens, UniProt P00742).
T1 construct: Human factor Xa, factor XIa, factor XIIa, thrombin, and plasma kallikrein were purchased; purchased Enzyme Research Laboratories (via Haemochrom, Essen)
Briefly: Inhibition constants against purified human serine proteases: FXa. The format is biochemical. The conditions noted are these: for Ki: 50 mM Tris-HCl pH 8.0, 154 mM NaCl, Pefachrome FXa. From the text: (§1) Aprotinin and tranexamic acid were purchased from SIGMA (Schnelldorf, Germany). Human factor Xa, factor XIa, factor XIIa, thrombin, and plasma kallikrein were purchased from Enzyme Research Laboratories, and human plasmin from Chromogenix (both via Haemochrom, Essen, Germany). Various synthetic peptide chromogenic substrates used for determination of inhibition constants were obtained from Pentapharm (Basel, Switzerland), Roche (Mannheim, Germany), and Chromogenix: Chromozyme PL for plasmin, S2302 for plasma kallikrein, Pefachrome FXa for factor Xa, Chromozym XII for FXIIa, Pefachrom tPA for thrombin, and Pefachrome PCa for factor XIa. Tissue-type plasminogen activator was obtained from Boehringer Ingelheim (Ingelheim, Germany). INTEM, EXTEM and STARTEM reagents and disposables for ROTEM® measurements were obtained from Pentapharm (Munich, Germany).
(§2) Inhibition of purified human serine proteases by Compound No. 3 and aprotinin was studied using the established methods described herein in Example 3 (i.e., Stürzebecher et al., 1997). Enzyme kinetic experiments were carried out in 96-well flat-bottom plates (Brand, Wertheim, Germany) in 50 mM Tris-HCl pH 8.0, 154 mM NaCl in the presence of different substrate and inhibitor concentrations. Steady-state velocities of substrate conversion were obtained from progress curves generated by continuous monitoring of the absorbance at 405 nm with a microplate reader (Multiskan Ascent, Thermo Electron Corporation, Dreieich, Germany). […] Inhibition constants (Ki) were calculated from non-linear fits of individual data sets to the Michaelis-Menten equation for competitive inhibitors using an enzyme kinetic analysis software (SIGMA Plot® 9.0 Enzyme Kinetics Module, SSI, San Jose, Calif.). Dixon plot analysis was applied to confirm the competitive inhibition mode.

The conditions of series [3]: cited from earlier work.
Series [4] has as its target plasma kallikrein (Homo sapiens, UniProt P03952). Description: Determination of inhibition constants for PK. The class given is biochemical. Further details: purchased Enzyme Research Lab. / Enzyme Research Laboratories. To be noted: 25° C., substrate S2302, pH 8.0; read-out: PK [Ki]. The procedure, abridged:
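Chromogenic assays measured absorbance at 405 nm: zero-order reactions were stopped with acetic acid after 20 min, and pseudo-first-order rates were recorded kinetically at equilibrium. Ki was obtained by Dixon linear regression or by fitting to the competitive-inhibition rate equation, averaging at least two determinations.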

A short description of series [5]: Terminal half-life in rats. The conditions noted are these: rat, in vivo.
Series [6] deals with T2, Human factor XIa (Homo sapiens, UniProt P03951).
T2 construct: Human factor Xa, factor XIa, factor XIIa, thrombin, and plasma kallikrein were purchased; purchased Enzyme Research Laboratories (via Haemochrom, Essen)
Briefly: Inhibition constants against purified human serine proteases: FXIa. The class given is biochemical.
From the text: as §1, with “Tissue-type plasminogen activator was obtained from Boehringer Ingelheim (Ingelheim, Germany). INTEM, EXTEM and STARTEM reagents and disposables for ROTEM® measurements were obtained from Pentapharm (Munich, Germany).” left out
as §2, with “Enzyme kinetic experiments were carried out in 96-well flat-bottom plates (Brand, Wertheim, Germany) in 50 mM Tris-HCl pH 8.0, 154 mM NaCl in the presence of different substrate and inhibitor concentrations.” left out, “Dixon plot analysis was applied to confirm the competitive inhibition mode.” left out

Series [7] in a line: Terminal half-life in dogs. The conditions noted are these: dog, in vivo.

Like-named read-outs stand apart in the source and are kept apart here.

T1 sequence (P00742 235-488 limits assumed): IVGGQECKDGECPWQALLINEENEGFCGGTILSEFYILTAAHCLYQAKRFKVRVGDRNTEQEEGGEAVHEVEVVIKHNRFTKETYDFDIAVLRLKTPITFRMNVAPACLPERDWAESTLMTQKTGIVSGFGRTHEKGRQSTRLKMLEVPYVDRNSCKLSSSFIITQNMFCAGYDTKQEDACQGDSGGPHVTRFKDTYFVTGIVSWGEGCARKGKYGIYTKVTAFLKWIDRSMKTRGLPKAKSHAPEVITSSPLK
T1 sequence (P00742 41-179 partner limits assumed): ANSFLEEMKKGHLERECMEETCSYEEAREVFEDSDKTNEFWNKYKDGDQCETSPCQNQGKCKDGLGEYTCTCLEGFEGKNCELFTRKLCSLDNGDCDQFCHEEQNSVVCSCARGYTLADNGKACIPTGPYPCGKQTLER
T2 sequence (P03951 388-625 limits assumed): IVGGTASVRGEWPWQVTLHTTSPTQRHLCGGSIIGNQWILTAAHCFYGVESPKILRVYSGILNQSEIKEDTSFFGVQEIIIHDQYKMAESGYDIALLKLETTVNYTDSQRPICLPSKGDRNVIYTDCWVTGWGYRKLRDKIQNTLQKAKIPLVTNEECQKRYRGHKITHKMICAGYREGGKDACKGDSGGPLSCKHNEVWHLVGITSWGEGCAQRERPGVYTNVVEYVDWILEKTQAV
T2 sequence (P03951 19-387 partner limits assumed): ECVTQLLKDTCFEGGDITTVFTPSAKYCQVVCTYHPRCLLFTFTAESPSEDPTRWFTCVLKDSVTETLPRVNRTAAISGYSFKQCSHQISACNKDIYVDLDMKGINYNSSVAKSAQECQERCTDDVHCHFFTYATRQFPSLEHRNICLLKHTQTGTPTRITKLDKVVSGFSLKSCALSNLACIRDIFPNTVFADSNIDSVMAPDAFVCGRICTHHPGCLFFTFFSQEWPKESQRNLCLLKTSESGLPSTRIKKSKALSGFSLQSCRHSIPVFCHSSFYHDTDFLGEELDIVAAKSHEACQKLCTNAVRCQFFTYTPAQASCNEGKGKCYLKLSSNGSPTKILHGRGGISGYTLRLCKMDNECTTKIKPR
Chain of plasma kallikrein (P03952 391-638 limits assumed): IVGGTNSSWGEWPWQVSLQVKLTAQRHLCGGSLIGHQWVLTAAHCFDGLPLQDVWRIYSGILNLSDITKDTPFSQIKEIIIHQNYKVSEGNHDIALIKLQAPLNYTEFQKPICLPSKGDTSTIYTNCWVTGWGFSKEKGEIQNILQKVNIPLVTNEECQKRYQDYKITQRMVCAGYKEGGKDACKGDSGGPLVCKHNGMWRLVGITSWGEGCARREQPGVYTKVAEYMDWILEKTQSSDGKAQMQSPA
Chain of plasma kallikrein (P03952 20-390 partner limits assumed): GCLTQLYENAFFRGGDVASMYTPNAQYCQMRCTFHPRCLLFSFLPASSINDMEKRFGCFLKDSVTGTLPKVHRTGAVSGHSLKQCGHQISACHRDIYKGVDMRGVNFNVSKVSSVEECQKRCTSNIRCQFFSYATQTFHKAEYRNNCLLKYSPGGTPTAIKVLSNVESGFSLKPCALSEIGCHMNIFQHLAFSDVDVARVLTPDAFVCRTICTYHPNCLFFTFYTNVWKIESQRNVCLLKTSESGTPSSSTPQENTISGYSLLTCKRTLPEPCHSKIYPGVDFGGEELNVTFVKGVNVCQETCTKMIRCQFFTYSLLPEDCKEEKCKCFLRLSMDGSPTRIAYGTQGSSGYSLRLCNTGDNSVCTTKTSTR

Take aprotinin: the “IC50 on t-PA-induced fibrinolysis in plasma expressed in KIU/mL” value in series [1] (converted from nM) turned out to be 15 KIU/mL. In addition, the IC50 in series [1] was 327 nM. This compound registered a Ki in series [2] of 55600 nM. The “risk of myocardial infarction and apoplectic stroke” value in series [3] (by comparison with the control groups) is on record as “increased”. Also, the “number of cases of kidney damage, making dialysis necessary” value in series [3] (comparison with ε-aminocaproic acid or tranexamic acid (Mangano et al., 2006)) is given as “doubling”. For the same compound, the entries for the “risk of an anaphylactic shock” value in series [3] (first administration) and in series [3] (repeated administration within 200 days) were less than 0.1% and 4-5%, respectively.
In the case of `N=C(N)c1ccc(CNC(=O)[C@H](Cc2cccc(CN)c2)NC(=O)[C@@H](CCCc2ccccc2)NS(=O)(=O)Cc2cccc(C(=O)O)c2)cc1` [compound 3, 3-HOOC-Bzls-d-Ppg-Phe(3-Ame)-4-Amba×2 acetate], in series [1], the IC50 is 315 nM. Further, the Ki was less than 10 nM in series [4]; 45 ± 5 nM in series [2]; 18 ± 1 nM in series [6] (50 mM Tris-HCl pH 8.0, 154 mM NaCl, Pefachrome PCa). Also, in series [2] (versus aprotinin), the “stronger inhibition of FXa than aprotinin” value stood at 1200 fold. Further, the half-life in series [5] and in series [7] was 20 min throughout. In addition, the “stronger inhibition of FXIa than aprotinin” value in series [6] (versus aprotinin) was found to be 100 fold.

What is called IC50 is the point on the concentration scale where inhibition reaches its midpoint. The term Ki denotes a measure of affinity in units of concentration, obtained from inhibition or displacement. As usually defined, the half-life is the time in which the quantity being followed falls by half.
